Tests used:
[1] = cn = amount concentration of the nth substance listed, in mol/dm3; conditions: 101 kPa, Liquid, Pycnometric method
[2] = for mass density: 101.33 kPa, Pycnometric method; for mass density / viscosity: Liquid

O=C(c1ccccc1)N(O)c1ccccc1 [N-phenylbenzohydroxamic acid] + C[S+](C)[O-]
mass density [kg/m3], [1]
Conditions | c1 = 0.0469 | c1 = 0.0938 | c1 = 0.1408 | c1 = 0.1877 | c1 = 0.2347 | c1 = 0.2816 | c1 = 0.3286 | c1 = 0.3755 | c1 = 0.4225 | c1 = 0.4694
298.15 K | 1097.23 | 1098.39 | 1098.59 | 1099.36 | 1100.14 | 1100.75 | 1101.46 | 1102.02 | 1102.75 | 1102.8
303.15 K | 1093.69 | 1094.33 | 1094.95 | 1096.03 | 1097.27 | 1098.29 | 1098.91 | 1099.88 | 1100.55 | 1100.96
308.15 K | 1089.07 | 1090.08 | 1091.61 | 1091.83 | 1093.14 | 1094.08 | 1095.64 | 1096.52 | 1097.67 | 1098.81
313.15 K | 1084.72 | 1086.26 | 1086.93 | 1087.56 | 1088.34 | 1089.59 | 1090.74 | 1091.97 | 1093.11 | 1094.24
318.15 K | 1078.8 | 1080.58 | 1081.55 | 1082.82 | 1083.33 | 1084.33 | 1085.8 | 1086.86 | 1087.92 | 1089.02

C[S+](C)[O-] [dimethyl sulfoxide]
[2]
Conditions | mass density [kg/m3] | viscosity [mPa·s]
298.15 K | 1094.75 | 1.993
303.15 K | 1090.76 | 1.801
308.15 K | 1086.06 | 1.652
313.15 K | 1080.45 | 1.516
318.15 K | 1075.26 | 1.398

O=C(c1ccccc1)N(O)c1ccccc1 [N-phenylbenzohydroxamic acid]
Conditions | Normal melting temperature [°C]
[2], Crystal, visual observation | 121.00
